Publication PMC10607054 (International Journal of Molecular Sciences, 2023)
Like-named read-outs stand apart in the source and are kept apart here.

Tests used:
[1] = test system: PPAR-responsive element (PPRE); test: PPRE-driven (J3TKpGL3, apo-AII promoter) Dual-Luciferase reporter assay in melanoma cells; format: cell-based; conditions: 10^−4 M, 40 h, human melanoma cells WM239A and A375P; vs non-ligand stimulated control
Procedure: The transcriptional activation of the PPRE promoter was tested using the J3TKpGL3 reporter plasmid, which contains a luciferase gene driven by the PPAR-responsive element (PPRE), which consists of three copies of the J site from the apo-AII gene promoter. The activation of PPAR elements was evaluated in melanoma cells following stimulation with a Firefly–Renilla Dual-Luciferase Reporter System (Promega, Madison, WI, USA). Experiments were carried out using human melanoma line WM239A and A375P (Trust Functional Genomics Cell Bank, London, UK) cells cultured in RPMI culture medium (ThermoFisher Scientific, Waltham, MA, USA) supplemented with 10% fetal bovine serum (EURx, Gdansk, Poland) at 37 °C, with a 5% CO2 content. […] Luciferase activity was measured using a commercial kit (Luciferase Assay System, Promega) according to the instructions of the supplier and assessed in a chemiluminometer (Synergy HT; Bio-Tek, Winooski, VT, USA)) using the Dual-Reporter Luciferase Assay System (Promega, Madison, WI, USA).

[2] = target: T1, AhR (Homo sapiens, UniProt P35869); test: cell-based Human AhR Reporter Assay System (luciferase)
T1 construct: purchased INDIGO Biosciences
T1 sequence (P35869 11-848): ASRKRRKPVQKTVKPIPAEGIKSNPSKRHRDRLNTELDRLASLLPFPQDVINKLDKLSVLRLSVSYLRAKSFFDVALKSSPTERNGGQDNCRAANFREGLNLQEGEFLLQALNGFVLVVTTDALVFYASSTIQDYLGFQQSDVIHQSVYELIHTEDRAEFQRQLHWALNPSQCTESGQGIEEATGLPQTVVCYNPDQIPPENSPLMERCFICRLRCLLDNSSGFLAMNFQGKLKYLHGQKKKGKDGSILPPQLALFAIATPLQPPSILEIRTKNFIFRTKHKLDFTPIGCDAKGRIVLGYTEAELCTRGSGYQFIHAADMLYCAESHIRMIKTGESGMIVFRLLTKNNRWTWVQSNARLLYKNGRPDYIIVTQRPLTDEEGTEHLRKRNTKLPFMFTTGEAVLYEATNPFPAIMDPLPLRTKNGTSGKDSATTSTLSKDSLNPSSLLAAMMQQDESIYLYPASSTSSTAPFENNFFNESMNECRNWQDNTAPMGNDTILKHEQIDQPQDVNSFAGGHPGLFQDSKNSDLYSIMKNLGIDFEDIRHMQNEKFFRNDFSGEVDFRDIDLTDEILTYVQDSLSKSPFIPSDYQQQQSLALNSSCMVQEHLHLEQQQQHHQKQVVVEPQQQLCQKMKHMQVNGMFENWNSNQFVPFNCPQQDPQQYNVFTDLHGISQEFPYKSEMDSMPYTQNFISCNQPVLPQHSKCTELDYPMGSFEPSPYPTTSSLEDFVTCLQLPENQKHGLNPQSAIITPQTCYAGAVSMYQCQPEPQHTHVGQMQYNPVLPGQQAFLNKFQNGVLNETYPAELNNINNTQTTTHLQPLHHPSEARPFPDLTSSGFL
Procedure: Briefly, the reporter cells were recovered using the cell recovery medium for 5 h. […] Luciferase detection reagent was added after discarding the media and luminescence was measured using a Citation 5 Cell Imaging Multi-Mode Reader (BioTek, Winooski, VT, USA).

[3] = target: T2, PPARγ ligand-binding domain (Homo sapiens, UniProt P37231); test: LanthaScreen TR-FRET PPARγ Coactivator Assay Kit (binding to PPARγ LBD); format: biochemical
T2 construct: PPARγ-LBD was added to the compounds; purchased Life Technologies Corporation
T2 sequence (P37231 238-503 limits assumed): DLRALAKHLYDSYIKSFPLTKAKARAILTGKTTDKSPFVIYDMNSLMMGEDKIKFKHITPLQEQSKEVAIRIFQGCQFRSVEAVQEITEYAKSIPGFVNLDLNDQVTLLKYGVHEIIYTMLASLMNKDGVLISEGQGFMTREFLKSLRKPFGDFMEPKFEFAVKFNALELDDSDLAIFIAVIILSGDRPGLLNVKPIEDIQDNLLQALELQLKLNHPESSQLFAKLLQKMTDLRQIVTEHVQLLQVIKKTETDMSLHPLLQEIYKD
Procedure: A PPARγ receptor binding assay was performed using the LanthaScreen™ TR-FRET PPARγ Coactivator Assay Kit (Life Technologies Corporation, Grand Island, NY, USA) following the manufacturer’s protocol. Briefly, PPARγ-LBD was added to the compounds, followed by the addition of the antibody (Tb-anti-GST) and a mixture of peptide (Fluorescein-TRAP220/DRIP-2). The reaction mixture was incubated at room temperature for 2 h or overnight.

[4] = Human AhR Reporter Assay System, two independent dose responses, 3 to 4 replicas per assay, mean ± spread (n = 2), read-out: EC50 (M) AhR
[5] = value in Figure 1, representative experiment, read-out: EC50 (AhR, representative dose response, Figure 1)
[6] = LanthaScreen TR-FRET PPARγ coactivator assay, PPARγ LBD, two independent dose responses, 3 to 4 replicas per assay, read-out: EC50 (M) PPARγ
[7] = value in Figure 3A, representative experiment, read-out: EC50 (PPARγ, representative dose response, Figure 3A)

Structure (SMILES)	stimulation of transcriptional activity of (PPRE)3-containing ApoA-II gene promoter (luciferase, RLU) [1]	EC50 ([2]; EC50 (AhR, representative dose response, Figure 1), value in Figure 1, representative experiment) [M]	EC50 ([2]; EC50 (M) AhR, Human AhR Reporter Assay System, two independent dose responses, 3 to 4 replicas per assay, mean ± spread (n = 2)) [M]	EC50 ([3]; EC50 (M) PPARγ, LanthaScreen TR-FRET PPARγ coactivator assay, PPARγ LBD, two independent dose responses, 3 to 4 replicas per assay) [M]	EC50 ([3]; EC50 (PPARγ, representative dose response, Figure 3A), value in Figure 3A, representative experiment) [M]	EC50 [2, 4] [M]	EC50 [2, 5] [M]	EC50 [3, 6] [M]	EC50 [3, 7] [M]
N[C@@H](Cc1c[nH]c2ccc(O)cc12)C(=O)O [5(OH)tryptophan, 5-hydroxytryptophan]	statistically significant stimulation	–	–	–	–	–	–	–	–
COc1ccc2[nH]cc(CCN)c2c1 [5-MTT, 5-methoxytryptamine]	–	0.0005	0.00029	3e-05	6.3e-05	–	–	–	–
COc1cc2c(CCNC(C)=O)c[nH]c2cc1O [6-Hydroxymelatonin, 6-hydroxymelatonin]	statistically significant stimulation	–	–	–	–	3.1e-05	3.3e-05	0.0037	0.0001
COc1ccc(NC=O)c(C(=O)CCNC(C)=O)c1 [AFMK, N^1-acetyl-N^2-formyl-5-methoxykynuramine]	statistically significant stimulation	–	–	–	–	4.4e-05	7.5e-05	0.00028	0.00011
COc1ccc2[nH]cc(CCNC(C)=O)c2c1 [Melatonin, N-acetyl-5-methoxytryptamine, reference compound]	statistically significant stimulation	–	–	–	–	–	–	0.0012	0.00095
